The values below come from patent publication US9763904B2, “Position-specific asymmetric deuterium enriched catecholamine derivatives and medicaments comprising said compounds” (Teva Pharmaceuticals International GmbH, priority 2013, dated 2017).

In series [1] the test system is 6-hydroxydopamine (6-OHDA) rodent model of Parkinson's disease. Nature of the series: Drug induced contralateral rotations (anti-Parkinson effect, motor performance) in unilaterally 6-OHDA lesioned rats. To be noted: 6-OHDA rats; for effect on motor performance (in words): comparison between test items; for Motor Effect [% of L-DOPA effect]: at equipotent dose, contralateral rotations; for Equipotent Dose [% of L-DOPA dose]: dose causing the same effect on motor performance as L-DOPA. In kind it is in vivo, Sprague-Dawley rats.

Series [2] has the same test system. The series can be described thus: Dyskinesia: scoring of abnormal involuntary movements (limb, axial, orolingual) after repeated treatment in 6-OHDA lesioned rats. The format is in vivo, Sprague-Dawley rats. The text has this: The effects on motor performance and the development of dyskinesia following administration of deuterated L-DOPA derivatives with different deuterium enrichment at specific position of the side chain have been compared among each other and to L-DOPA in the 6-hydroxydopamine (6-OHDA) rodent model of Parkinson's disease.
Female Sprague-Dawley rats weighing approximately 225 g were housed on a 12-hour light/dark cycle and kept on standard laboratory diet and water ad libitum. The rats were lesioned by unilateral injection of the neurotoxin 6-OHDA. The lesion was validated by measuring the rotational activity after i.p. injection of 2.5 mg/kg D-amphetamine.
Dyskinesia was evaluated after repeated treatment by scoring the animals for abnormal involuntary movements. The rats were scored, by an observer blinded to the experimental design for limb, axial and orolingual involuntary movements.
The equipotent dose as percent of L-DOPA dose that caused the same effect on motor performance and dyskinesia observed following repeated administration of these doses is shown in Table 2.

Series [3] relates to striatal dopamine. The following applies: compared to L-DOPA, prior art, cited from earlier work.
For series [4], the system named is Parkinson models. The following applies: cited from earlier work.
The mark [5] stands for this setting: 6-OHDA rats, repeated administration, equipotent dose.
[6] abbreviates: repeated administration of equipotent doses, 6-OHDA rats.
Where [7] appears, read: female, Sprague-Dawley, rat, in vivo.

“Also recorded” adds a separate entry of the source. Where two headings read alike, the source gives them in different places.

As for “L-2-amino-2,3,3*-trideutero-3-(3,4-dihydroxyphenyl) propionic acid [Test Item D]”, in series [1], the “effect on motor performance (in words)” value is “motor effect equivalent to the di-deuterated α, β-D2-L-DOPA [B]”; the “Motor Effect [% of L-DOPA effect]” value is recorded as 100% of L-DOPA effect; the “Equipotent Dose [% of L-DOPA dose]” value is given as 35% of L-DOPA dose. Also, the “dyskinesia at equipotent dose (in words)” value in series [2] (setting [5]) was “reduction of dyskinesia as the triple-deuterated α, β, β-D3-L-DOPA [C]”. In series [2] (setting [6]), the “Dyskinesia [% of dyskinesia caused by L-DOPA]” value is reported as 50% of dyskinesia caused by L-DOPA.
On to `[2H][C@@H](c1ccc(O)c(O)c1)[C@]([2H])(N)C(=O)O` [Test Item B, S/S-2-amino-2,3-dideutero-3-(3,4-dihydroxyphenyl) propionic acid], for which, in series [1], the “effect on motor performance (in words)” value was “significantly greater compared to α, β, β-D3-L-DOPA [C] and L-DOPA [A]”; the “Motor Effect [% of L-DOPA effect]” value is listed as 100% of L-DOPA effect; the “Equipotent Dose [% of L-DOPA dose]” value is reported as 30% of L-DOPA dose. The “striatal dopamine levels / output (in words)” value in series [3] (listed as α, β-D2-L-DOPA) was “increase and prolong the output of striatal dopamine significantly more than L-DOPA; also recorded: highest striatal dopamine concentrations”. In addition, the “dyskinesia at equipotent dose (in words)” value in series [2] (setting [5]) is on record as “not reduced in comparison to L-DOPA”. Moreover, the “Dyskinesia [% of dyskinesia caused by L-DOPA]” value in series [2] (setting [6]) is reported as 100% of dyskinesia caused by L-DOPA.
In the case of `[2H]C([2H])(c1ccc(O)c(O)c1)[C@]([2H])(N)C(=O)O` [Test Item C, L-2-amino-2,3,3-trideutero-3-(3,4-dihydroxyphenyl) propionic acid], in series [1], the “Motor Effect [% of L-DOPA effect]” value is given as 100% of L-DOPA effect and the “Equipotent Dose [% of L-DOPA dose]” value is recorded as 60% of L-DOPA dose. Also, the “equi-effective dose compared to L-DOPA” value in series [4] (Parkinson models, literature) is listed as “about 60%”. The “motor activity (in words)” value in series [4] (compared to L-DOPA, several Parkinson models) is recorded as “improved motor activity compared to L-DOPA”. Also, the “striatal dopamine levels / output (in words)” value in series [3] (listed as α, β,β-D3-L-DOPA) is “increase and prolong the output of striatal dopamine significantly more than L-DOPA”. Further, the “striatal dopamine levels / output (in words)” value in series [3] (listed as α,β,β-D3-L-DOPA) is reported as “higher longer-lasting striatal dopamine levels than L-DOPA”. Also, the “Dyskinesia [% of dyskinesia caused by L-DOPA]” value in series [2] (setting [7]) is given as 50% of dyskinesia caused by L-DOPA. Further, in series [2] (rat, in vivo), the “dyskinesia at equipotent dose (in words)” value is given as “significantly less dyskinesia than L-DOPA”.
`N[C@@H](Cc1ccc(O)c(O)c1)C(=O)O` [Test Item A, L-2-amino-3-(3,4-dihydroxyphenyl) propionic acid]: in series [1], the “Motor Effect [% of L-DOPA effect]” value is 100% of L-DOPA effect and the “Equipotent Dose [% of L-DOPA dose]” value is listed as 100% of L-DOPA dose. Also, the “Dyskinesia [% of dyskinesia caused by L-DOPA]” value in series [2] (setting [7]) is 100% of dyskinesia caused by L-DOPA.
